Columns and labels:
Format in all cases: cell-based
[1] = test system: interleukin 2 receptor (IL-2R, Tac) expression in PHA-stimulated mouse spleen cells; assay: suppression of induction of IL-2R (Tac) expression in PHA-stimulated mouse spleen cells
Protocol: (§1) Mouse allogenic MLC and PHA-stimulated mouse spleen cells were prepared in the same as in Experimental Example 3.
(§2) The IL-2R (Tac) induced in mouse allogenic MLC and PHA-stimulated mouse spleen cells was assayed as follows:
(§3) After culturing the mouse allogenic MLC and the PHA-stimulated mouse spleen cells at 37° C. in an atmosphere of 5% carbon dioxide for 24 hours, the cells were collected by centrifugation (1000 rpm, 5 minutes, 4° C.), and about 10^6 cells were cultured in 10 μl of phosphate buffered saline (PBS), to which 0.02% sodium azide-containing rat anti-mouse IL-2R monoclonal antibody (manufactured by Boehringer Co., 40 μg/ml) had been added, for 30 minutes with ice-cooling. After washing three times with ice-cooled PBS containing 0.02% sodium azide, 50 μl of fluorescein isothiocyanate (FITC)-labeled goat anti-rat immunoglobulin G antibody was added and cultured for 30 minutes with ice-cooling. To the cell pellet after washing three times with ice-cooled 0.02% sodium azide-added PBS was added, a few drops of PBS containing 0.2% sodium azide and 50% glycerin. Prepared specimens on non-fluorescent slide glasses were made and the IL-2R positive cells were counted under a fluorescent microscope to determine the ratio of numbers of IL-2R positive cells in the total numbers of the cells.

[2] = test system: interleukin 2 receptor (IL-2R, Tac) expression in mouse allogenic MLC; assay: suppression of induction of IL-2R (Tac) expression in mouse allogenic MLC
Protocol: as §1, §2, §3

[3] = test system: interleukin 1 (IL1) response of mouse thymocytes; assay: suppression of interleukin 1 (IL1) response of mouse thymocytes; conditions: PHA + IL1
Protocol: The thymus was resected from 7-week-old male C3H/HeN mice, and single cell suspension was prepared using the serum-free RPMI1640 culture medium. After three times washing with the medium, the cells were suspended to a concentration of 1.5×10^7 cells/ml in the RPMI1640 culture medium supplemented with 20% fetal calf serum, 5×10^-5 M 2-mercaptoethanol, 2×10^-3 M L-glutamine, 1×10^-3 M sodium pyruvate, 1 μg/ml of phytohemagglutinin (PHA, Wellcome Co., HA16/17) and 2 units/ml of human ultrapure interleukin 1 (Genzyme Co., GUPi-1). One hundred μl of this cell suspension and 100 μl of the solution containing ISP-I were mixed in each well of the 96-well flat-bottomed microculture plate, cultured at 37° C. in an atmosphere of 5% carbon dioxide for 66 hours, and cultured for further 6 hours after addition of 0.5 μCi/well of ^3 H-thymidine. After termination of the culture, the cells in each well were harvested onto a filter by a multiple cell harvester, and the radioactivity incorporated into the cells was measured by liquid scintillation method using a toluene-base scintillator.
In the table, SD means standard deviation. The percent suppression (%) was calculated by the following formulation. [formula]

[4] = test system: interleukin 6 (IL6) response of mouse spleen cells; assay: suppression of interleukin 6 (IL6) response of mouse spleen cells (plaque assay)
Protocol: The spleen was resected from 8-week-old male BALB/c mice, and single cell suspension in the serum-free RPMI1640 culture medium was prepared, and thereafter cell pellets were obtained by centrifugation (1000 rpm, 5 minutes) of the suspension. Then a mixture of 9 parts of a 0.16 M ammonium chloride solution and 1 part of a 0.17 M Tris solution (pH 7.65) was added to lyse red blood cells, and the suspension was washed three times with the serum-free RPMI1640 culture medium. The obtained cells were suspended to the concentration of 5×10^6 cells/ml in the RPMI1640 culture medium supplemented with 20% FCS, 5×10^-5 M 2-mercaptoethanol, 2×10^-3 M L glutamine, 1×10^-3 sodium pyruvate and 25% of the supernatant of the culture of T24 human bladder carcinoma cell line as a source of interluekin 6. One hundred μl of this cell suspension and 100 μl of the test substance were mixed in each well of 96-well microculture plates, and cultured at 37° C. in an atmosphere of 5% carbon dioxide for 72 hours. After termination of the culture, 50 μl of the cell suspension was collected from each well. Three hundred μl of the RPMI1640 culture medium supplemented with 0.7% agarose gel, 20 μl of physiological saline containing 40% protein A-bound sheep red blood cells and 20 μl of 300-fold dilution of anti-mouse IgG anti-serum diluted in physiological saline were mixed in a test tube, and extended uniformly on Rohduck plates (Falcon Co. 1034). After gel formation by keeping still at room temperature for a few minutes, the plates were cultured at 37° C. in an atmosphere of 5% carbon dioxide for about 4 hours.
Three hundred μl of a 40-fold dilution of guinea pig complement in the serum-free RPMI1640 culture medium was added to each plate, which was then incubated for further 2 hours. The number of plaques formed was counted under stereoscopic microscope.
SD in the Table means standard deviation. The percent suppression (%) was calculated by the following formula. [formula]

`CCCCCCC(=O)CCCCCC/C=C/CC(O)C(O)C(N)(CO)C(=O)O` (centres unmarked) [Example 1] was tested. Which IL-2R positive cells ([1]; 0.1 μg/ml) did it give?
The IL-2R positive cells was 36.6%.

And the IL-2R positive cells ([1]; 1 μg/ml)?
The IL-2R positive cells was 26.6%.

And the IL-2R positive cells ([1]; 10 μg/ml)?
The IL-2R positive cells was 13.4%.

What about the inhibition at 0.1 µg/mL ([1]; Mus musculus, 24 h, 0.1 μg/ml) of the same molecule?
The inhibition at 0.1 µg/mL was 20.8%.

What about the inhibition at 1 µg/mL ([1]; Mus musculus, 24 h, 1 μg/ml) of the same molecule?
Its inhibition at 1 µg/mL is 42.4%.

And the inhibition at 10 µg/mL ([1]; Mus musculus, 24 h, 10 μg/ml)?
The inhibition at 10 µg/mL was 71%.

And the IL-2R positive cells ([2]; 0.001 μg/ml)?
Its IL-2R positive cells is 22.4%.

And the IL-2R positive cells ([2]; 0.01 μg/ml)?
Its IL-2R positive cells is 17.6%.

What about the IL-2R positive cells ([2]; 0.1 μg/ml) of the same molecule?
The IL-2R positive cells was 13.1%.

What about the IL-2R positive cells ([2]; 1 μg/ml) of the same molecule?
Its IL-2R positive cells is 11.4%.

What about the inhibition at 0.001 µg/mL ([2]; Mus musculus, 24 h, 0.001 μg/ml) of the same molecule?
The inhibition at 0.001 µg/mL was 8.2%.

What about the inhibition at 0.01 µg/mL ([2]; Mus musculus, 24 h, 0.01 μg/ml) of the same molecule?
The inhibition at 0.01 µg/mL was 27.9%.

What about the inhibition at 0.1 µg/mL ([2]; Mus musculus, 24 h, 0.1 μg/ml) of the same molecule?
The inhibition at 0.1 µg/mL was 44.3%.

What about the inhibition at 1 µg/mL ([2]; Mus musculus, 24 h, 1 μg/ml) of the same molecule?
Its inhibition at 1 µg/mL is 53.3%.

And the inhibition at 0.2 µg/mL ([3]; Mus musculus, Thymocyte, 72 h, 0.2 μg/ml)?
Its inhibition at 0.2 µg/mL is 83.9%.

What about the inhibition at 2 µg/mL ([3]; Mus musculus, Thymocyte, 72 h, 2 μg/ml) of the same molecule?
Its inhibition at 2 µg/mL is 91.8%.

And the 3H-thymidine uptake ([3]; 0.2 μg/ml)?
Its 3H-thymidine uptake is 4646 ± 826 cpm ± SD.

What about the 3H-thymidine uptake ([3]; 2 μg/ml) of the same molecule?
The 3H-thymidine uptake was 3973 ± 39 cpm ± SD.

And the Number of plaque ([4]; 0.002 μg/ml)?
Its Number of plaque is 130 ± 4 plaque/1 × 10^6 cells ± SD.

And the Number of plaque ([4]; 0.02 μg/ml)?
The Number of plaque was 108 ± 10 plaque/1 × 10^6 cells ± SD.

What about the Number of plaque ([4]; 0.2 μg/ml) of the same molecule?
Its Number of plaque is 78 ± 6 plaque/1 × 10^6 cells ± SD.

And the Number of plaque ([4]; 2 μg/ml)?
The Number of plaque was 60 ± 8 plaque/1 × 10^6 cells ± SD.

What about the inhibition at 0.002 µg/mL ([4]; Mus musculus, 72 h, 0.002 μg/ml) of the same molecule?
The inhibition at 0.002 µg/mL was 39.2%.

What about the inhibition at 0.02 µg/mL ([4]; Mus musculus, 72 h, 0.02 μg/ml) of the same molecule?
Its inhibition at 0.02 µg/mL is 50.5%.

What about the inhibition at 0.2 µg/mL ([4]; Mus musculus, 72 h, 0.2 μg/ml) of the same molecule?
Its inhibition at 0.2 µg/mL is 66%.

What about the inhibition at 2 µg/mL ([4]; Mus musculus, 72 h, 2 μg/ml) of the same molecule?
The inhibition at 2 µg/mL was 75.3%.

— patent publication US5219884A, “Immunosuppressant” (Taito Co., Ltd., priority 1990, dated 1993)
